PubChem BioAssay AID1963983 (Molecular Pharmacology Branch, DTP, NCI, 2024)
pIC50: −log10 of the molar value. Values joined by “and” are separate entries in the source; they are usually repeats but may differ in a detail not shown here. Identical values can stand only once.

Tested on: 186277-243-T-J2-PDC multi-cell spheroid viability
Assay: Anticancer human tumor 186277-243-T-J2-PDC patient-derived colon adenocarcinoma cell line growth inhibition [PI3K]
Details: for viability, T/C: stronger effect = lower value; active means viability on the fitted dose curve at most 10% of control; inactive means the rest
Summary of the method: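 Spheroid viability read-out. Co-cultures contained the tumor line plus HUVEC and human MSCs. Each agent was paired with a PI3K inhibitor (inavolisib, alpelisib, duvelisib, copanlisib) across half-log dilutions starting at clinical Cmax, or at 10 microM when Cmax was unknown.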

[1] = curve of first compound, second compound 0.0316 µM
[2] = curve of first compound, second compound 0.1 µM
[3] = curve of first compound, second compound 0.316 µM
[4] = curve of first compound, second compound 1 µM
[5] = curve of first compound, second compound 3.16 µM
[6] = curve of first compound, second compound 10 µM
[7] = second compound 0.0316 µM, first compound 0.0316 µM
[8] = second compound 0.0316 µM, first compound 0.1 µM
[9] = second compound 0.0316 µM, first compound 0.316 µM
[10] = second compound 0.0316 µM, first compound 1 µM
[11] = second compound 0.0316 µM, first compound 3.16 µM
[12] = second compound 0.0316 µM, first compound 10 µM
[13] = second compound 0.1 µM, first compound 0.0316 µM
[14] = second compound 0.1 µM, first compound 0.1 µM
[15] = second compound 0.1 µM, first compound 0.316 µM
[16] = second compound 0.1 µM, first compound 1 µM
[17] = second compound 0.1 µM, first compound 3.16 µM
[18] = second compound 0.1 µM, first compound 10 µM
[19] = second compound 0.316 µM, first compound 0.0316 µM
[20] = second compound 0.316 µM, first compound 0.1 µM
[21] = second compound 0.316 µM, first compound 0.316 µM
[22] = second compound 0.316 µM, first compound 1 µM
[23] = second compound 0.316 µM, first compound 3.16 µM
[24] = second compound 0.316 µM, first compound 10 µM
[25] = second compound 1 µM, first compound 0.0316 µM
[26] = second compound 1 µM, first compound 0.1 µM
[27] = second compound 1 µM, first compound 0.316 µM
[28] = second compound 1 µM, first compound 1 µM
[29] = second compound 1 µM, first compound 3.16 µM
[30] = second compound 1 µM, first compound 10 µM
[31] = second compound 3.16 µM, first compound 0.0316 µM
[32] = second compound 3.16 µM, first compound 0.1 µM
[33] = second compound 3.16 µM, first compound 0.316 µM
[34] = second compound 3.16 µM, first compound 1 µM
[35] = second compound 3.16 µM, first compound 3.16 µM
[36] = second compound 3.16 µM, first compound 10 µM
[37] = second compound 10 µM, first compound 0.0316 µM
[38] = second compound 10 µM, first compound 0.1 µM
[39] = second compound 10 µM, first compound 0.316 µM
[40] = second compound 10 µM, first compound 1 µM
[41] = second compound 10 µM, first compound 3.16 µM
[42] = second compound 10 µM, first compound 10 µM
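Further: spheroids exposed to compounds for seven days before viability reading.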
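Wherever viability, T/C is given: 100% = DMSO vehicle control viability.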

CC1(C)CCC(Nc2ncc(C(F)(F)F)c(-c3c[nH]c4c(P(C)(C)=O)c(C#N)ccc34)n2)CN1 (stereo not drawn) + CC(Nc1ncnc2nc[nH]c12)c1cc2cccc(Cl)c2c(=O)n1-c1ccccc1
5.39: pIC50 [3]
6.06: pIC50 [6]
5.38: pIC50 [1]
5.36: pIC50 [2]
active: viability, T/C [12] 1.23% | viability, T/C [18] 1.55% | viability, T/C [24] 0.31% | viability, T/C [30] 0.97% | viability, T/C [36] 0.64% | viability, T/C [42] 1.26%
inactive: viability, T/C [7] 77.7% | viability, T/C [8] 61.8% | viability, T/C [9] 58% | viability, T/C [10] 59.9% | viability, T/C [11] 66.5% | viability, T/C [13] 92.4% | viability, T/C [14] 57.1% | viability, T/C [15] 62% | viability, T/C [16] 64.4% | viability, T/C [17] 68.6% | viability, T/C [19] 81.3% | viability, T/C [20] 57.7% | viability, T/C [21] 58.3% | viability, T/C [22] 64.1% | viability, T/C [23] 64.2% | viability, T/C [25] 75.4% | viability, T/C [26] 61% | viability, T/C [27] 60.8% | viability, T/C [28] 63% | viability, T/C [29] 61.9% | viability, T/C [31] 80.1% | viability, T/C [32] 69.1% | viability, T/C [33] 63.4% | viability, T/C [34] 67.2% | viability, T/C [35] 63% | viability, T/C [37] 72% | viability, T/C [38] 59.5% | viability, T/C [39] 55.1% | viability, T/C [40] 53.8% | viability, T/C [41] 30.2%
5.40: pIC50 [4] | pIC50 [5]

CNC(=O)c1ccc(N2C(=S)N(c3ccc(C#N)c(C(F)(F)F)c3)C(=O)C2(C)C)cc1F + Cc1nc(NC(=O)N2CCCC2C(N)=O)sc1-c1ccnc(C(C)(C)C(F)(F)F)c1
> 7.50: pIC50 [6]
inactive: viability, T/C [7] 83.5% | viability, T/C [8] 90% | viability, T/C [9] 102% | viability, T/C [10] 91.9% | viability, T/C [11] 103% | viability, T/C [12] 109% | viability, T/C [13] 106% | viability, T/C [14] 92.5% | viability, T/C [15] 109% | viability, T/C [16] 100% | viability, T/C [17] 114% | viability, T/C [18] 95.4% | viability, T/C [19] 97.1% | viability, T/C [20] 95.5% | viability, T/C [21] 92% | viability, T/C [22] 115% | viability, T/C [23] 102% | viability, T/C [24] 86.1% | viability, T/C [25] 106% | viability, T/C [26] 96% | viability, T/C [27] 111% | viability, T/C [28] 105% | viability, T/C [29] 103% | viability, T/C [30] 86% | viability, T/C [31] 62.7% | viability, T/C [32] 62.6% | viability, T/C [33] 66.4% | viability, T/C [34] 66.7% | viability, T/C [35] 70.1% | viability, T/C [36] 58.7% | viability, T/C [37] 13.9% | viability, T/C [38] 17.7% | viability, T/C [39] 14.7% | viability, T/C [40] 14% | viability, T/C [41] 15.5% | viability, T/C [42] 13.8%
< 5.00: pIC50 [1] | pIC50 [2] | pIC50 [3] | pIC50 [4] | pIC50 [5]

C#Cc1c(F)ccc2cc(O)cc(-c3ncc4c(N5CC6CCC(C5)N6)nc(OCC56CCCN5CC(F)C6)nc4c3F)c12 (stereo not drawn) + CC(Nc1ncnc2nc[nH]c12)c1cc2cccc(Cl)c2c(=O)n1-c1ccccc1
7.10: pIC50 [4]
> 7.50: pIC50 [6]
active: viability, T/C [12] 9.72% | viability, T/C [34] 12.1% | viability, T/C [35] 7.19% | viability, T/C [36] 4.96% | viability, T/C [39] 8.73% | viability, T/C [40] 6.7% | viability, T/C [41] 4.26% | viability, T/C [42] 4.02%
7.06: pIC50 [3]
inactive: viability, T/C [7] 98.9% | viability, T/C [8] 47.3% | viability, T/C [9] 19.4% | viability, T/C [10] 11.3% | viability, T/C [11] 10.3% | viability, T/C [13] 106% | viability, T/C [14] 46.3% | viability, T/C [15] 21.2% | viability, T/C [16] 13.3% | viability, T/C [17] 16.1% | viability, T/C [18] 8% | viability, T/C [19] 102% | viability, T/C [20] 41% | viability, T/C [21] 25.5% | viability, T/C [22] 20.3% | viability, T/C [23] 14.3% | viability, T/C [24] 11.2% | viability, T/C [25] 93.6% | viability, T/C [26] 38% | viability, T/C [27] 18% | viability, T/C [28] 19.6% | viability, T/C [29] 11% | viability, T/C [30] 6.62% | viability, T/C [31] 68.6% | viability, T/C [32] 26.3% | viability, T/C [33] 14.9% | viability, T/C [37] 31.9% | viability, T/C [38] 12.6%
7.28: pIC50 [5]
7.03: pIC50 [1] | pIC50 [2]

CC(Cn1ccc(-c2ccc(C#N)c(Cl)c2)n1)NC(=O)c1cc(C(C)O)[nH]n1 (stereo not drawn)
inactive: viability, T/C (compound 0.0316 µM) 95.5% [middle of 4 runs] | viability, T/C (compound 0.1 µM) 99% [middle of 4 runs] | viability, T/C (compound 0.316 µM) 101% [middle of 4 runs] | viability, T/C (compound 1 µM) 102% (2×) and 82% and 108% | viability, T/C (compound 3.16 µM) 96.6% [middle of 4 runs] | viability, T/C (compound 10 µM) 97.3% [middle of 4 runs]
< 5.00: pIC50 (curve of compound)
